Assay results published in PubChem BioAssay (NCI).
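Five compound concentrations were applied to cells in 96-well plates for 48 hours; endpoints were derived by simple linear interpolation of the resulting dose-response curve. GI50 = concentration required for 50% inhibition of growth. TGI: total growth inhibition.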

What was measured:
Experiment in all cases: growth of human tumour cells (NCI), 48 h
NCI-H460 lung = system: NCI-H460 lung
HL-60(TB) leukemia = system: HL-60(TB) leukemia
KM12 colon = system: KM12 colon
OVCAR-4 ovarian = system: OVCAR-4 ovarian
EKVX NSCLC = system: EKVX NSCLC
SK-MEL-5 melanoma = system: SK-MEL-5 melanoma
HOP-62 NSCLC = system: HOP-62 NSCLC
SK-OV-3 ovarian = system: SK-OV-3 ovarian
786-0 renal = system: 786-0 renal
MDA-N = system: MDA-N
RXF 393 renal = system: RXF 393 renal

Structure (SMILES) | TGI (NCI-H460 lung) | TGI (HL-60(TB) leukemia) | TGI (KM12 colon) | TGI (OVCAR-4 ovarian) | TGI (EKVX NSCLC) | TGI (SK-MEL-5 melanoma) | TGI (HOP-62 NSCLC) | TGI (SK-OV-3 ovarian) | TGI (786-0 renal) | TGI (MDA-N) | TGI (RXF 393 renal) | GI50 (NCI-H460 lung) | GI50 (RXF 393 renal) | GI50 (HL-60(TB) leukemia) | GI50 (KM12 colon) | GI50 (OVCAR-4 ovarian) | GI50 (EKVX NSCLC) | GI50 (SK-MEL-5 melanoma) | GI50 (HOP-62 NSCLC) | GI50 (SK-OV-3 ovarian)
Cc1cccc2ns[s+]c12 | > 100 µM | > 100 µM | > 100 µM | > 100 µM | > 100 µM | > 100 µM | > 100 µM | > 100 µM |  |  |  |  |  |  |  |  |  |  |  | 
COc1cc(NS(C)(=O)=O)ccc1N1Cc2cnc3ccc4[nH]ccc1c4c23 | 43.8 µM | > 100 µM | > 100 µM | > 100 µM | > 100 µM | 75.8 µM | > 100 µM |  | > 100 µM | > 100 µM |  |  |  |  |  |  |  |  |  | 
CCCCCCc1cc2cc(C(=O)Nc3cccc(C(F)(F)F)c3)c(=N)oc2cc1O | > 32.1 µM | 6.98 µM | 10.3 µM | 14.3 µM | 11.6 µM | 2.45 µM | 5.03 µM | 10.1 µM | 6.27 µM |  | 2.19 µM |  |  |  |  |  |  |  |  | 
Nc1nc(NC(=O)C2=NS(=O)(=O)c3cc(S(N)(=O)=O)c(Cl)cc3N2)n[nH]1 | > 100 µM |  | > 100 µM | > 100 µM | > 100 µM | > 100 µM | > 100 µM | > 100 µM | > 100 µM |  | > 100 µM |  |  |  |  |  |  |  |  | 
CC1=C2CC3=C(C)C(=O)O[C@H]3C[C@@H](C)[C@@H]2CC1 | > 100 µM | > 100 µM | > 100 µM | > 100 µM | > 100 µM | > 100 µM |  | > 100 µM | > 100 µM |  |  |  |  |  |  |  |  |  |  | 
COC(=O)C1(C(=O)OC)CC2=C(S(=O)(=O)c3ccccc3)C[C@@H](C#N)[C@H]2C1 | > 100 µM | > 100 µM | > 100 µM | > 100 µM | > 100 µM | > 100 µM | > 100 µM | > 100 µM | > 100 µM | > 100 µM |  |  |  |  |  |  |  |  |  | 
COc1cc(C2c3cc4c(c(O)c3C(=O)C3CCC(=O)N32)OCO4)cc(OC)c1OC (stereo not given) | > 100 µM | > 100 µM | > 100 µM | > 100 µM | > 100 µM | > 100 µM | > 100 µM | > 100 µM | > 100 µM | 91.9 µM |  |  |  |  |  |  |  |  |  | 
COc1ccc2c(c1)CCC1C2CCC2(C)C1CC[C@@]2(O)CNC(=O)/C=C/c1ccc(O)c(O)c1 (stereo not given in full) | > 100 µM | 3.97 µM | 7.82 µM | > 100 µM | > 100 µM | 9.6 µM | 79.1 µM | > 100 µM |  |  | 16.7 µM | 2.69 µM | 3.98 µM | 0.595 µM | 2.44 µM | 3.02 µM | 4.01 µM | 3.41 µM | 5.59 µM | 14.8 µM
CC(C)(C)OC(=O)N(CCCN)CCCCN(CCCN)C(=O)OC(C)(C)C | > 100 µM | > 100 µM | > 100 µM | > 100 µM | > 100 µM | > 100 µM | > 100 µM | > 100 µM | > 100 µM |  | > 100 µM |  |  |  |  |  |  |  |  | 
N#Cc1c(C#N)c(-c2ccco2)n(/N=C/c2ccco2)c1N | > 100 µM | > 100 µM | > 100 µM | > 100 µM | > 100 µM | > 100 µM | > 100 µM | > 100 µM | > 100 µM |  | 89.1 µM |  |  |  |  |  |  |  |  | 
CC(C)CCC[C@@H](C)[C@H]1CC[C@H]2[C@@H]3CC=C4CC(OCCCCN(O)CCCSC5OC(CO)C(O)C(O)C5O)CC[C@]4(C)[C@H]3CC[C@]12C (stereo not given in full) | > 100 µM | > 100 µM | > 100 µM | > 100 µM | > 100 µM | > 100 µM | > 100 µM | > 100 µM | 32.5 µM |  | > 100 µM |  |  |  |  |  |  |  |  | 
NC(N)=NS(=O)(=O)c1ccc(NC(=O)c2c3ccccc3nc3ccccc23)cc1 | > 100 µM |  | > 100 µM | > 100 µM | > 100 µM | > 100 µM | > 100 µM | > 100 µM | > 100 µM | > 100 µM |  |  |  |  |  |  |  |  |  | 
CC1(C)CC(=O)C2=C(C1)OC1=C(CC(C)(C)CC1=O)C2c1ccccc1Cl (stereo not given) | > 100 µM | > 100 µM |  | > 100 µM | > 100 µM | > 100 µM | > 100 µM | > 100 µM | > 100 µM |  | > 100 µM |  |  |  |  |  |  |  |  | 
COc1cc2c(oc(=O)c3c4oc([Si](C)(C)C)cc4cc(OC)c23)c2cccc(O)c12 | > 100 µM | > 100 µM | > 100 µM | > 100 µM | > 100 µM | > 100 µM | > 100 µM | > 100 µM | > 100 µM |  | > 100 µM |  |  |  |  |  |  |  |  | 
COC(=O)c1ccc2[nH]c3c(c2c1)CC(=O)Nc1ccccc1-3 | > 100 µM |  | > 100 µM | 40.2 µM | > 100 µM | > 100 µM | > 100 µM | > 100 µM | > 100 µM | > 100 µM |  |  |  |  |  |  |  |  |  | 
CCC1OC(=O)C(C)C(OC2CC(C)(O)C(O)C(C)O2)C(C)C(O)C(C)(O)CC(C)C(=O)C(C)C(O)C1C (stereo not given) | > 300 µM | > 300 µM | > 300 µM | > 300 µM | > 300 µM | > 300 µM | > 300 µM | > 300 µM |  |  | > 300 µM |  |  |  |  |  |  |  |  | 

Structure (SMILES) | TGI (NCI-H460 lung) | TGI (HL-60(TB) leukemia) | TGI (KM12 colon) | TGI (OVCAR-4 ovarian) | TGI (EKVX NSCLC) | TGI (SK-MEL-5 melanoma) | TGI (HOP-62 NSCLC) | TGI (SK-OV-3 ovarian) | TGI (786-0 renal) | TGI (MDA-N) | TGI (RXF 393 renal) | GI50 (NCI-H460 lung) | GI50 (RXF 393 renal) | GI50 (HL-60(TB) leukemia) | GI50 (KM12 colon) | GI50 (OVCAR-4 ovarian) | GI50 (EKVX NSCLC) | GI50 (SK-MEL-5 melanoma) | GI50 (HOP-62 NSCLC) | GI50 (SK-OV-3 ovarian)
O=C(C(Cl)=C(Nc1ccccc1)Nc1ccccc1)C(Cl)Cl | > 100 µM | 51.9 µM | > 100 µM | > 100 µM | 70.2 µM | 35.6 µM | 69.7 µM | 94.6 µM | 69.1 µM |  | 56.1 µM |  |  |  |  |  |  |  |  | 
CC(C)OP(=O)(OC(C)C)c1ncn(-c2ccc([N+](=O)[O-])cc2)n1 | > 100 µM | > 100 µM | > 100 µM | > 100 µM | > 100 µM | > 100 µM | > 100 µM | > 100 µM |  |  | > 100 µM |  |  |  |  |  |  |  |  | 
Nc1cc(N)c2nc(-c3ccccc3)c(Sc3ccc(F)cc3)nc2c1 | 65.8 µM | > 100 µM | 48.5 µM | 55.9 µM | 41.2 µM | 33.4 µM | 34.3 µM | 31.6 µM |  |  | 29.3 µM | 21.7 µM | 13.3 µM | 39.3 µM | 20.8 µM | 22.9 µM | 20.5 µM | 15.6 µM | 16.6 µM | 15.7 µM
Cc1ccc(-c2c(C#N)c(O)n(NS(=O)(=O)c3ccccc3)c(=O)c2C#N)cc1 | > 100 µM | > 100 µM | > 100 µM | > 100 µM | > 100 µM | > 100 µM | > 100 µM | > 100 µM | > 100 µM |  | > 100 µM |  |  |  |  |  |  |  |  | 
O=C1CSC(c2ccc(Cl)cc2)N1c1ccc(-n2c(-c3ccccc3)nc3ccccc3c2=O)cc1 (stereo not given) | > 100 µM |  | > 100 µM | 41 µM | > 100 µM | > 100 µM | > 100 µM | > 100 µM | > 100 µM | > 100 µM |  |  |  |  |  |  |  |  |  | 
CC(C)(C)C(=O)Cc1cc2c(cc1C(=O)O)S(=O)(=O)NC(C(C)(C)C)=C2 | > 100 µM | > 100 µM | > 100 µM | > 100 µM | > 100 µM |  | > 100 µM | > 100 µM | > 100 µM |  |  |  |  |  |  |  |  |  |  | 
COC[C@H](Cc1ccccc1)N=Cc1ccccc1 | > 100 µM |  | > 100 µM | > 100 µM | > 100 µM | > 100 µM | > 100 µM | > 100 µM | > 100 µM |  | > 100 µM |  |  |  |  |  |  |  |  | 
COc1ccc2[nH]c3c(C)c4ccnc(NCCCN(C)CCCNC(=O)NCCCN(C)CCCNc5nccc6c(C)c7[nH]c8ccc(OC)cc8c7c(C)c56)c4c(C)c3c2c1 | 1.34 µM | 1.2 µM | > 10.1 µM | 7.83 µM | 2.56 µM |  | 2.11 µM | > 18.4 µM | 1.2 µM |  | 1.26 µM |  |  |  |  |  |  |  |  | 
O=C(CSCC(=O)N/N=C\c1cc(Br)cc(Br)c1O)N/N=C\c1cc(Br)cc(Br)c1O | > 100 µM |  | > 100 µM | > 100 µM | > 100 µM | 92.2 µM | > 100 µM | > 100 µM | > 100 µM |  | > 100 µM |  |  |  |  |  |  |  |  | 
COc1ccc(C2Oc3cc(OC)c(O)cc3[C@@H]2C)cc1 (stereo not given in full) | > 100 µM | 47.4 µM | > 100 µM | > 100 µM | > 100 µM | > 100 µM | > 100 µM | > 100 µM | 31.3 µM |  | > 100 µM |  |  |  |  |  |  |  |  | 
CN1C(=N\S(=O)(=O)c2ccc(Cl)cc2)/C(=N/N=P(c2ccccc2)(c2ccccc2)c2ccccc2)c2ccccc21 | > 100 µM |  | > 100 µM | > 100 µM | > 100 µM | > 100 µM |  | > 100 µM |  |  | > 100 µM |  |  |  |  |  |  |  |  | 
Clc1ccc(CCn2ccc3ccccc32)c(Cl)c1 | > 100 µM | > 100 µM | > 100 µM | > 100 µM | > 100 µM | > 100 µM | > 100 µM | > 100 µM | > 100 µM |  | > 100 µM |  |  |  |  |  |  |  |  | 
CCCCCCCCCCCCCCCCCc1nc(C#N)c(N)o1 |  | 69.6 µM | > 100 µM |  | > 100 µM | > 100 µM | > 100 µM | > 100 µM | > 100 µM | > 100 µM |  |  |  |  |  |  |  |  |  | 
OB1OCc2ccccc21 | > 100 µM | > 100 µM | > 100 µM | 92.8 µM |  | > 100 µM | 62.9 µM | 47.1 µM | > 100 µM |  |  |  |  |  |  |  |  |  |  | 
O=C(CCc1nnc2s/c(=C\c3ccc(Cl)cc3Cl)c(=O)n12)Nc1cc(Cl)c(Cl)cc1Cl |  | > 100 µM | > 100 µM | > 100 µM | > 100 µM | > 100 µM | > 100 µM | > 100 µM |  |  |  |  |  |  | > 100 µM | > 100 µM | > 100 µM | > 100 µM | > 100 µM | > 100 µM
